Broadly, the Ki is a dissociation constant, usually derived from enzyme kinetics or from competition with a known ligand.

The record followed here is PMC5464344, “Analgesic and anti‐inflammatory properties of novel, selective, and potent EP4 receptor antagonists” (Pharmacology Research & Perspectives, 2017).

One experiment has as its target T1, human EP1 receptor (Homo sapiens, UniProt P34995).
T1 construct: membrane preparation
T1 sequence (P34995 1-402): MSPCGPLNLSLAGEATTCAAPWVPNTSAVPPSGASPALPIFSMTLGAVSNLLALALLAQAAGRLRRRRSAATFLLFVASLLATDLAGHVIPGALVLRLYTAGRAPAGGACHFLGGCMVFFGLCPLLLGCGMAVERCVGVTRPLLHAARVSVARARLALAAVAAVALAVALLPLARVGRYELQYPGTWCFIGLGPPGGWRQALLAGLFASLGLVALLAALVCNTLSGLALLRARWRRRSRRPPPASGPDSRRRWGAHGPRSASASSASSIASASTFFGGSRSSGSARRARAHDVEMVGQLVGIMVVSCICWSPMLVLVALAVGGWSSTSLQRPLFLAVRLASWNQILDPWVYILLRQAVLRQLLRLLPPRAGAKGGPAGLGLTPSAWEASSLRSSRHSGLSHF
Description: [3H]-PGE2 receptor binding assay, EP1 membranes. The following applies: HEK293 membranes; [3H]-PGE2; geometric mean ± SEM; read-out: hEP1-4 receptor binding EP1 Ki. The procedure: Receptor binding assays were done using membrane preparations of HEK 293 cells transfected with various prostanoid receptors using previously published procedure (Nakao et al. 2007). EP1 and EP4 membranes were prepared from recombinant HEK293 cells stably expressing human EPl receptor (GenBank Accession # AY275470, Clone ID PER0100000, UMR cDNA Resource Center, Rolla, MO) or human EP4 receptor. EP2 and EP3 membranes were prepared from HEK293 cells transiently transfected with human EP2 receptor (GenBank Accession # AY275471, Clone ID PER0200000, UMR cDNA Resource Center, Rolla, MO) or human EP3 receptor (GenBank Accession # AY429108, Clone ID PER3VI0000, UMR cDNA Resource Center, Rolla, MO) plasmids. Frozen cell pellets were homogenized in homogenization buffer (10 mmol/L Tris‐HCl, pH7.4, 250 mmol/L sucrose, 1 mmol/L EDTA, 0.3 mmol/L indomethacin and protease inhibitor cocktail with EDTA (Roche Molecular Biochemicals, catalog # 1691498)) using a Teflon/glass homogenizer. After a low speed centrifugation (200g for 15 min at 4°C) the supernatant was subjected to high speed centrifugation (30,000g for 60 min at 4°C). Membrane protein preparation was aliquoted and quick frozen on dry ice prior to storage at −80°C. […] Compounds were tested in a 96‐well format using a three‐fold dilution series to generate 10‐point curves. […] The binding reaction was performed in 200 μL MES buffer (10 mmol/L MES, pH 6.0, 10 mmol/L MgCl2, and l mmol/L EDTA) using polystyrene 96‐well plates. […] The membranes were harvested by filtration (TomTek harvester), washed four times with cold buffer (10 mmol/L MES, pH 6.0, 10 mmol/L MgCl2), dried in a 60°C oven, and the radioactivity was quantified as counts per min (CPM) using a TopCount detector. […] Data were analyzed using a 4‐parameter nonlinear logistic equation. K i Conversion from IC50 Values (K i = […] where [L] is the ligand concentration). Results are expressed as the geometric mean ± standard deviation or geometric mean ± standard error as noted.

In experiment [1] the target is T2, IP (PGI2) (h), agonist radioligand (Homo sapiens, UniProt P43119).
T2 construct: CEREP (contract laboratory that ran the assay)
T2 sequence (P43119 whole entry): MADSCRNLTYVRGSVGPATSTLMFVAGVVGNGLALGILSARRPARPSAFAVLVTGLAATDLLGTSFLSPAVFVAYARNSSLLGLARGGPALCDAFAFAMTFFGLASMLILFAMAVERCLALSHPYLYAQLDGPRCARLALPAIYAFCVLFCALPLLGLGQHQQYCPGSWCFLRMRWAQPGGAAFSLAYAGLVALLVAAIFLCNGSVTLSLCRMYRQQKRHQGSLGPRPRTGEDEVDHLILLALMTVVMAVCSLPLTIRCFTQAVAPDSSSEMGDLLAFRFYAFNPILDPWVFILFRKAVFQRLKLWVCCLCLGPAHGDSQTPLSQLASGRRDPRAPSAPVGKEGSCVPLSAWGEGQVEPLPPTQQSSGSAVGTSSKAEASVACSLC
Briefly: Off-target activity (CEREP), IP. The settings on record: 10 μmol/L; obtained at CEREP (Blanco et al. 2016c); read-out: % Inh IP (PGI2) (h), agonist radioligand. It counts as binding. From the text: The off‐target activity related to prostaglandin pathway (Table 2) were obtained at CEREP (Blanco et al. 2016c).

Experiment [2] concerns male Lewis rats, adjuvant induced arthritis. Briefly: AIA model of inflammation (paw swelling). The settings on record: rat AIA; all 3 doses tested (1, 3, and 10 mg/kg) oral once daily 4 days; P < 0.05 by Dunnett's test. It counts as in vivo. The procedure: (§1) For the monoiodoacetate (MIA) and adjuvant induced arthritis (AIA) studies, male Lewis rats (Envigo, Indianapolis, IN) of approximately 8 weeks of age at the time of disease induction were used. For collagen induced arthritis studies (CIA) female Lewis rats (Charles River) weighing 150–170 g were used. Rats were housed in groups of 2 or 3 per cage and maintained in a constant temperature, and on a 12 h light/12 h dark cycle. Animals had free access to food and water at all times except during data collection.
On Day 0, paw widths of both right and left paws were measured between the lateral and dorsal surfaces using calipers, and a mean paw thickness for each rat was calculated by averaging these measurements. Rats were then inoculated intradermally with 0.25 mg of adjuvant (M. Tuberculosis H37 RA from Difco) in 100 μL of mineral oil at the base of the tail to induce adjuvant disease. Eleven days post inoculation paw widths of both right and left paws were measured again, and the percent change from the Day 0 reading was calculated. […] On the fifth day after dosing started (day 15 post adjuvant injection) the rats were euthanized without further dosing and paw width measured again. The percent increase in mean paw thickness from day 11 to day 15 was then calculated as a measure of paw swelling which is indicative of the amount of inflammation in the paws measured. […]

Experiment [3] relates to female Lewis rats, collagen induced arthritis. Description: Type-II CIA model of inflammation and autoimmunity. The format is in vivo. The settings on record: rat CIA. The procedure: as §1
On day 1 of the study ankle widths are measured across the joint (left side to right side) at the thickest point with calipers and rats immunized intradermally near the base of the tail with 0.4 mL of 1 mg/mL type II collagen (Elastin Products) emulsified with incomplete Freund's adjuvant (Sigma Aldrich). A second booster injection booster of 0.4 mL of the collagen emulsion was given on day 8 of the study. Ankle widths were measured on day 8 before the collagen injection and every 2–3 days thereafter until study end. On day 11 rats were randomized into five groups of eight animals based on inflammation (redness and/or swelling) in their hind paws and body weight. Rats were then dosed with vehicle (10% Acacia plus 0.05% antifoam) and compound 3 at doses of 3, 10, and 30 mg/kg. Prednisolone was included at a dose of 10 mg/kg as a positive control. Dosing was by oral gavage once daily for seventeen days at a dose volume of 5 mL/kg. On day 28 rats were euthanized and hind paws and knee joints collected for histology. Ankles and knees were fixed in neutral buffered formalin, decalcified, embedded in paraffin, and sectioned according to standard histological methodology and the joints were then scored by a pathologist using published scoring criteria (Bendele 2001; Levine et al. 2014).

As to `C[C@H](NC(=O)c1cc(Cl)ccc1Oc1ccc(F)cc1)c1ccc(C(=O)O)cc1` [CJ‐042,794, reference compound], the Ki at human EP1 receptor is more than 26.7 µM.
Consider `Cc1ccc(N2CCC(O)CC2)nc1C(=O)Nc1c(C)cc(C(=O)O)cc1C` [Compound 1], for which the inhibition at 10 µM in experiment [1] is -4%.
Take `C[C@H](NC(=O)[C@H]1CCCCN1CCOc1ccccc1)c1ccc(C(=O)O)cc1` [Compound 2]: the inhibition at 10 µM in experiment [1] is 9%. For the same compound, the “increases in paw inflammation (swelling) compared to vehicle” value in experiment [2] is “significantly inhibited”.
For `Cc1ccc(-c2cccc(CO)c2)nc1C(=O)Nc1c(C)ccc(C(=O)O)c1C` [Compound 3], in experiment [3] (10 and 30 mg/kg oral once daily for seventeen days), the “ankle histology, nearly all parameters and summed scores” value is “significant reductions”. In experiment [3] (Fig. 10 bottom panel, prednisolone 10 mg/kg, compound 3 dose not given), the “knee joint histopathology (representative photomicrograph)” value was “minimal inflammation (S) and cartilage damage (large arrow), very minimal pannus (small arrow) and bone formation (P) not visible at this magnification”. The “ankle joint histopathology (representative photomicrograph)” value in experiment [3] (Fig. 10 top panel, prednisolone 10 mg/kg, compound 3 dose not given) is “moderate inflammation (S) and cartilage damage (large arrow), mild pannus (small arrow) and mild periosteal bone formation”. For the same compound, in experiment [3] (all three doses (3, 10, and 30 mg/kg) oral once daily, data not shown), the ankle thickness result is reported as “significant reduction”. For the same compound, at human EP1 receptor, the Ki is more than 17.5 µM.
